For 10 molecules, viability, T/C and IC50 results are on record in PubChem BioAssay AID2060493 (Molecular Pharmacology Branch, DTP, NCI, 2025).

For orientation: viability, T/C means the result in the treated group divided by that in the control group, in per cent. As usually defined, the IC50 is the point on the concentration scale where inhibition reaches its midpoint.

This experiment has as its system 616215-338-R-J1-PDC tumor spheroids, viability. Nature of the experiment: Anticancer human tumor 616215-338-R-J1-PDC patient-derived colon adenocarcinoma cell line growth inhibition [GQUAD]. Conditions: spheroids with HUVEC and MSC; for viability, T/C: stronger effect = lower value. In outline:
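Viability of tumor cells grown as complex spheroids with endothelial and stromal cells, exposed to drug combinations. Top concentration at or near clinical Cmax (else 10 microM), diluted in half-log increments.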

Where [1] appears, read: curve of first compound, second compound 0.0316 µM.
[2] abbreviates: curve of first compound, second compound 0.1 µM.
The mark [3] stands for this setting: curve of first compound, second compound 0.316 µM.
The mark [4] stands for this setting: curve of first compound, second compound 1 µM.
Where [5] appears, read: curve of first compound, second compound 3.16 µM.
[6] abbreviates: curve of first compound, second compound 10 µM.
The mark [7] stands for this setting: second compound 0.0316 µM, first compound 0.0316 µM.
The mark [8] stands for this setting: second compound 0.0316 µM, first compound 0.1 µM.
The mark [9] stands for this setting: second compound 0.0316 µM, first compound 0.316 µM.
Setting [10] is: second compound 0.0316 µM, first compound 1 µM.
The mark [11] stands for this setting: second compound 0.0316 µM, first compound 3.16 µM.
Where [12] appears, read: second compound 0.0316 µM, first compound 10 µM.
Where [13] appears, read: second compound 0.1 µM, first compound 0.0316 µM.
Setting [14] is: second compound 0.1 µM, first compound 0.1 µM.
Where [15] appears, read: second compound 0.1 µM, first compound 0.316 µM.
Setting [16] is: second compound 0.1 µM, first compound 1 µM.
The mark [17] stands for this setting: second compound 0.1 µM, first compound 3.16 µM.
[18] abbreviates: second compound 0.1 µM, first compound 10 µM.
The mark [19] stands for this setting: second compound 0.316 µM, first compound 0.0316 µM.
Setting [20] is: second compound 0.316 µM, first compound 0.1 µM.
Where [21] appears, read: second compound 0.316 µM, first compound 0.316 µM.
The mark [22] stands for this setting: second compound 0.316 µM, first compound 1 µM.
Where [23] appears, read: second compound 0.316 µM, first compound 3.16 µM.
The mark [24] stands for this setting: second compound 0.316 µM, first compound 10 µM.
The mark [25] stands for this setting: second compound 1 µM, first compound 0.0316 µM.
The mark [26] stands for this setting: second compound 1 µM, first compound 0.1 µM.
Setting [27] is: second compound 1 µM, first compound 0.316 µM.
The mark [28] stands for this setting: second compound 1 µM, first compound 1 µM.
The mark [29] stands for this setting: second compound 1 µM, first compound 3.16 µM.
The mark [30] stands for this setting: second compound 1 µM, first compound 10 µM.
Setting [31] is: second compound 3.16 µM, first compound 0.0316 µM.
[32] abbreviates: second compound 3.16 µM, first compound 0.1 µM.
[33] abbreviates: second compound 3.16 µM, first compound 0.316 µM.
Setting [34] is: second compound 3.16 µM, first compound 1 µM.
Setting [35] is: second compound 3.16 µM, first compound 3.16 µM.
[36] abbreviates: second compound 3.16 µM, first compound 10 µM.
Where [37] appears, read: second compound 10 µM, first compound 0.0316 µM.
[38] abbreviates: second compound 10 µM, first compound 0.1 µM.
The mark [39] stands for this setting: second compound 10 µM, first compound 0.316 µM.
Setting [40] is: second compound 10 µM, first compound 1 µM.
Where [41] appears, read: second compound 10 µM, first compound 3.16 µM.
Where [42] appears, read: second compound 10 µM, first compound 10 µM.

The structures appear in SMILES notation. “And” between values parts separate entries of the source, which are not always exact repeats. Identical values can stand only once.
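Further: spheroids exposed to agents for 7 days before readout.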
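Wherever viability, T/C is given: percent viability relative to DMSO vehicle control wells taken as 100%.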

On to `C=CCn1c(=O)c2cnc(Nc3ccc(N4CCN(C)CC4)cc3)nc2n1-c1cccc(C(C)(C)O)n1`, for which the viability, T/C runs as follows: (compound 0.0316 µM) 106% and 108% and 101%; (compound 0.1 µM) 94.6% and 98.4% and 92.7%; (compound 0.316 µM) 53% and 53.7% and 76.8%; (compound 1 µM) 24.1% and 24.6% and 28.5%; (compound 3.16 µM) 13.3% and 13.7% and 23.5%; (compound 10 µM) 12.5% and 12% and 23.2%. Moreover, the IC50 (curve of compound) is 367 nM and 381 nM and 601 nM.

In the case of `COc1cccc2c1C(=O)c1c(O)c3c(c(O)c1C2=O)CC(O)(C(=O)CO)CC3OC1CC(N)C(O)C(C)O1` (stereo not given) + Cc1[nH]c2ccc(F)cc2c1-c1nc2c3cccnc3c3ncccc3c2[nH]1, the half-maximal inhibitory concentration (IC50) by setting is: under setting [1], 771 nM; under setting [2], 504 nM; under setting [3], 554 nM; under setting [4], 937 nM; under setting [5], 506 nM; under setting [6], 623 nM. The viability, T/C by setting is: under setting [7], 108%; under setting [8], 88.2%; under setting [9], 58.6%; under setting [10], 39.3%; under setting [11], 38.8%; under setting [12], 2.47%. Moreover, the viability, T/C was 96.8% under setting [13]; 92.8% under setting [14]; 46.3% under setting [15]; 41.5% under setting [16]; 21.6% under setting [17]; 4% under setting [18]. The viability, T/C is 105% under setting [19]; 75.5% under setting [20]; 53.7% under setting [21]; 49% under setting [22]; 18.7% under setting [23]; 2.01% under setting [24]. For the same molecule, the viability, T/C is, setting by setting: under setting [25], 91.7%; under setting [26], 91.2%; under setting [27], 71.6%; under setting [28], 44.5%; under setting [29], 27.6%; under setting [30], 2.3%. The viability, T/C under setting [31] is 89.2%; the viability, T/C under setting [32] was 84.6%; the viability, T/C under setting [33] was 50%; the viability, T/C under setting [34] is 39%; the viability, T/C under setting [35] was 23.4%; the viability, T/C under setting [36] was 1.17%. Also, the viability, T/C is, setting by setting: under setting [37], 103%; under setting [38], 76.2%; under setting [39], 55.6%; under setting [40], 54.8%; under setting [41], 20.1%; under setting [42], 1.64%.

In the case of `O=c1[nH]cc(F)c(=O)[nH]1` + CN(C)c1ccc(Nc2c3ccc(NC(=O)CCN4CCCC4)cc3nc3cc(NC(=O)CCN4CCCC4)ccc23)cc1, the IC50 reads like this: under setting [1], 663 nM; under setting [2], 505 nM; under setting [3], 455 nM; under setting [4], 562 nM; under setting [5], 383 nM; under setting [6], 373 nM. For the same molecule, the viability, T/C by setting is: under setting [7], 98.4%; under setting [8], 89.3%; under setting [9], 66.6%; under setting [10], 39.8%; under setting [11], 36.4%; under setting [12], 32.8%. Further, the viability, T/C by setting is: under setting [13], 95.3%; under setting [14], 94.3%; under setting [15], 58.8%; under setting [16], 38%; under setting [17], 38.1%; under setting [18], 33.9%. For the same molecule, the viability, T/C is 93.9% under setting [19]; 81.2% under setting [20]; 54.5% under setting [21]; 39.6% under setting [22]; 36.7% under setting [23]; 32.8% under setting [24]. Also, the viability, T/C under setting [25] was 101%; the viability, T/C under setting [26] is 86.4%; the viability, T/C under setting [27] was 59.2%; the viability, T/C under setting [28] is 41.6%; the viability, T/C under setting [29] is 31.2%; the viability, T/C under setting [30] is 33.6%. The viability, T/C is, setting by setting: under setting [31], 84.5%; under setting [32], 83.8%; under setting [33], 52.5%; under setting [34], 38%; under setting [35], 32%; under setting [36], 34%. Moreover, the viability, T/C under setting [37] was 87.6%; the viability, T/C under setting [38] is 71.3%; the viability, T/C under setting [39] is 52.4%; the viability, T/C under setting [40] is 38.9%; the viability, T/C under setting [41] is 38.3%; the viability, T/C under setting [42] is 35.5%.

With `CC1COCCN1c1cc(-c2ccnn2C)c2ccnc(-c3ccn[nH]3)c2n1` (stereo not given), the viability, T/C by setting is: (compound 0.0316 µM) 98.8% and 101% and 103%; (compound 0.1 µM) 51.8% and 57% and 69.5%; (compound 0.316 µM) 38.8% and 31.3% and 37%; (compound 1 µM) 29.2% and 23.1% and 26.1%; (compound 3.16 µM) 24.5% and 18.4% and 26.3%; (compound 10 µM) 27.6% and 18.9% and 17.4%. For the setting “curve of compound”, the IC50 is 126 nM and 137 nM and 203 nM.

Regarding `O=c1[nH]cc(F)c(=O)[nH]1`, the viability, T/C reads like this: (compound 0.0316 µM) 108% and 102% and 111%; (compound 0.1 µM) 94.5% and 99.6% and 87%; (compound 0.316 µM) 68.3% and 78.9% and 59.7%; (compound 1 µM) 40.8% and 52.1% and 38%; (compound 3.16 µM) 39.3% and 43.9% and 33.4%; (compound 10 µM) 38.3% and 41.7% and 35.4%. The IC50 (curve of compound) is 729 nM and 1280 nM and 523 nM.

For `O=C(NO)c1cnc(N2CCN(S(=O)(=O)c3ccc4ccccc4c3)CC2)nc1` + Cc1cnc(CNC(=O)c2c(=O)c3ccc(N4CCCN(C)CC4)nc3n3c2sc2ccccc23)cn1, the IC50 reads like this: under setting [1], 501 nM; under setting [2], 147 nM; under setting [3], < 31.6 nM; under setting [4], < 31.6 nM; under setting [5], < 31.6 nM; under setting [6], < 31.6 nM. For the same molecule, the viability, T/C under setting [7] was 101%; the viability, T/C under setting [8] is 96.1%; the viability, T/C under setting [9] is 79.9%; the viability, T/C under setting [10] is 5.15%; the viability, T/C under setting [11] was 0.03%; the viability, T/C under setting [12] was 0.07%. Also, the viability, T/C is 54.1% under setting [13]; 66.6% under setting [14]; 29.4% under setting [15]; 0.37% under setting [16]; 0.03% under setting [17]; 0.07% under setting [18]. In addition, the viability, T/C runs as follows: under setting [19], 37.2%; under setting [20], 41.2%; under setting [21], 28.5%; under setting [22], 0.06%; under setting [23], 0.02%; under setting [24], 0.06%. In addition, the viability, T/C is 24.7% under setting [25]; 24.8% under setting [26]; 35.1% under setting [27]; 0.04% under setting [28]; 0.03% under setting [29]; 0.08% under setting [30]. The viability, T/C under setting [31] was 21.9%; the viability, T/C under setting [32] is 34.8%; the viability, T/C under setting [33] was 0.18%; the viability, T/C under setting [34] is 0.07%; the viability, T/C under setting [35] is 0.07%; the viability, T/C under setting [36] is 0.09%. The viability, T/C was 12.2% under setting [37]; 16% under setting [38]; 0.15% under setting [39]; 0.14% under setting [40]; 0.16% under setting [41]; 0.17% under setting [42].

For `C=CC(=O)N1CCN(c2nc(=O)n(-c3c(C)ccnc3C(C)C)c3nc(-c4c(O)cccc4F)c(F)cc23)C(C)C1` (stereo not given), the viability, T/C is 104% and 97.8% and 91.6% (compound 0.0316 µM); 90.8% and 91.2% and 98.1% (compound 0.1 µM); 90.4% and 93.1% and 102% (compound 0.316 µM); 94.2% and 93.5% and 95.7% (compound 1 µM); 91.2% and 93.4% and 92.8% (compound 3.16 µM); 68.1% and 71.2% and 75.3% (compound 10 µM). For the same molecule, the IC50 (curve of compound) is > 10000 nM.

As to `CCCS(=O)(=O)Nc1ccc(F)c(C(=O)c2c[nH]c3ncc(-c4ccc(Cl)cc4)cc23)c1F`, the viability, T/C was 100% (2×) and 106% (compound 0.0316 µM); 103% and 95.3% and 98.6% (compound 0.1 µM); 97.9% and 100% and 97.8% (compound 0.316 µM); 97% and 88.9% and 91.9% (compound 1 µM); 89.7% and 88.8% and 104% (compound 3.16 µM); 3.68% and 3.75% and 6.39% (compound 10 µM). Besides, for the setting “curve of compound”, the IC50 was 5380 nM and 5350 nM and 5840 nM.

Turning to `Nc1ccn(C2OC(CO)C(O)C2(F)F)c(=O)n1` (stereo not given), the viability, T/C is, setting by setting: (compound 0.0316 µM) 53.3% and 42.5% and 53%; (compound 0.1 µM) 21.3% and 23.8% and 25.2%; (compound 0.316 µM) 16.9% and 9.13% and 18.7%; (compound 1 µM) 17.8% and 10.8% and 15.7%; (compound 3.16 µM) 14% and 12.8% and 17.5%; (compound 10 µM) 17.1% and 11.2% and 17.3%. Moreover, the IC50 (curve of compound) was 35.6 nM and < 31.6 nM and 35.8 nM.

For `CC(C)(O)C1CCC(Nc2ccc3ncc(-c4cccc(C(F)(F)F)c4)n3n2)CC1` (stereo not given), the viability, T/C was 103% and 105% (2×) (compound 0.0316 µM); 92.2% and 90.8% and 100% (compound 0.1 µM); 108% and 95.6% and 93.2% (compound 0.316 µM); 16.1% and 27.9% and 33.8% (compound 1 µM); 0.52% and 1.27% and 3.2% (compound 3.16 µM); 12.4% and 1.83% and 2.83% (compound 10 µM). Moreover, the IC50 (curve of compound) was 631 nM and 686 nM and 729 nM.
